Data taken from BigSolDB 2.1.

CC[C@@H](C(=O)[C@@H](C)[C@@H](O)[C@H](C)CCc1ccc(C)c(O)c1C(=O)[O-])[C@H]1O[C@](CC)([C@H]2CC[C@](O)(CC)[C@H](C)O2)C[C@@H]1C.[Na+]
solubility (mole fraction) (in acetone, 283.15 K): 0.0117 | solubility (mole fraction) (in acetone, 288.15 K): 0.0119 | solubility (mole fraction) (in acetone, 293.15 K): 0.0121 | solubility (mole fraction) (in acetone, 298.15 K): 0.0123 | solubility (mole fraction) (in acetone, 303.15 K): 0.0125 | solubility (mole fraction) (in acetone, 308.15 K): 0.0127 | solubility (mole fraction) (in acetone, 313.15 K): 0.0129 | solubility (mole fraction) (in acetone, 318.15 K): 0.0132 | solubility (mole fraction) (in acetone, 323.15 K): 0.0135 | solubility (mole fraction) (in ethanol, 283.15 K): 0.00223 | solubility (mole fraction) (in ethanol, 288.15 K): 0.00246 | solubility (mole fraction) (in ethanol, 293.15 K): 0.0026 | solubility (mole fraction) (in ethanol, 298.15 K): 0.00311 | solubility (mole fraction) (in ethanol, 303.15 K): 0.00364 | solubility (mole fraction) (in ethanol, 308.15 K): 0.00419 | solubility (mole fraction) (in ethanol, 313.15 K): 0.00456 | solubility (mole fraction) (in ethanol, 318.15 K): 0.00502 | solubility (mole fraction) (in ethanol, 323.15 K): 0.00564 | solubility (mole fraction) (in ethyl acetate, 283.15 K): 0.00531 | solubility (mole fraction) (in ethyl acetate, 288.15 K): 0.00538 | solubility (mole fraction) (in ethyl acetate, 293.15 K): 0.00548 | solubility (mole fraction) (in ethyl acetate, 298.15 K): 0.00556 | solubility (mole fraction) (in ethyl acetate, 303.15 K): 0.00566 | solubility (mole fraction) (in ethyl acetate, 308.15 K): 0.00575 | solubility (mole fraction) (in ethyl acetate, 313.15 K): 0.00587 | solubility (mole fraction) (in ethyl acetate, 318.15 K): 0.00596 | solubility (mole fraction) (in ethyl acetate, 323.15 K): 0.00602 | solubility (mole fraction) (in isopropanol, 283.15 K): 0.00085 | solubility (mole fraction) (in isopropanol, 288.15 K): 0.00095 | solubility (mole fraction) (in isopropanol, 293.15 K): 0.00106 | solubility (mole fraction) (in isopropanol, 298.15 K): 0.00117 | solubility (mole fraction) (in isopropanol, 303.15 K): 0.00136 | solubility (mole fraction) (in isopropanol, 308.15 K): 0.00161 | solubility (mole fraction) (in isopropanol, 313.15 K): 0.00191 | solubility (mole fraction) (in isopropanol, 318.15 K): 0.00211 | solubility (mole fraction) (in isopropanol, 323.15 K): 0.00233 | solubility (mole fraction) (in methanol, 283.15 K): 0.00259 | solubility (mole fraction) (in methanol, 288.15 K): 0.00293 | solubility (mole fraction) (in methanol, 293.15 K): 0.0031 | solubility (mole fraction) (in methanol, 298.15 K): 0.00352 | solubility (mole fraction) (in methanol, 303.15 K): 0.00391 | solubility (mole fraction) (in methanol, 308.15 K): 0.00413 | solubility (mole fraction) (in methanol, 313.15 K): 0.00456 | solubility (mole fraction) (in methanol, 318.15 K): 0.00508 | solubility (mole fraction) (in methanol, 323.15 K): 0.00577
